Measured values published in ChEMBL document CHEMBL5653631, “A Potent and Selective ULK1 Inhibitor Suppresses Autophagy and Sensitizes Cancer Cells to Nutrient Stress” (iScience, 2018).

Columns and labels:
[1] = target: Ephrin type-A receptor 2 (Homo sapiens) (UniProt P29317); assay: Inhibition of human recombinant EphA2 at 40 nM in presence of ATP by radiometric assay relative to control
[2] = target: Angiopoietin-1 receptor (Homo sapiens) (UniProt Q02763); assay: Inhibition of human recombinant Tie2 at 40 nM in presence of ATP by radiometric assay relative to control
[3] = target: High affinity nerve growth factor receptor (Homo sapiens) (UniProt P04629); assay: Inhibition of human recombinant TRKA at 40 nM in presence of ATP by radiometric assay relative to control
[4] = target: Calcium/calmodulin-dependent protein kinase type II subunit gamma (Homo sapiens) (UniProt Q13555); assay: Inhibition of human recombinant CaMK2g at 40 nM related to control ULK1
[5] = target: Protein kinase C delta type (Homo sapiens) (UniProt Q05655); assay: Inhibition of human recombinant PKCd at 40 nM related to control ULK1
[6] = target: Proto-oncogene tyrosine-protein kinase ROS (Homo sapiens) (UniProt P08922); assay: Inhibition of human recombinant ROS at 40 nM related to control ULK1
[7] = target: SRSF protein kinase 1 (Homo sapiens) (UniProt Q96SB4); assay: Inhibition of human recombinant SRPK1 at 500 nM in presence of ATP by radiometric assay relative to control
[8] = target: Serine/threonine-protein kinase 35 (Homo sapiens) (UniProt Q8TDR2); assay: Inhibition of human recombinant CLIK1 at 500 nM related to control ULK1
[9] = target: T1, Mitogen-activated protein kinase kinase kinase 2 (Homo sapiens) (UniProt Q9Y2U5); assay: Inhibition of human recombinant MAP3K2 at 500 nM related to control ULK1
T1 sequence (whole entry): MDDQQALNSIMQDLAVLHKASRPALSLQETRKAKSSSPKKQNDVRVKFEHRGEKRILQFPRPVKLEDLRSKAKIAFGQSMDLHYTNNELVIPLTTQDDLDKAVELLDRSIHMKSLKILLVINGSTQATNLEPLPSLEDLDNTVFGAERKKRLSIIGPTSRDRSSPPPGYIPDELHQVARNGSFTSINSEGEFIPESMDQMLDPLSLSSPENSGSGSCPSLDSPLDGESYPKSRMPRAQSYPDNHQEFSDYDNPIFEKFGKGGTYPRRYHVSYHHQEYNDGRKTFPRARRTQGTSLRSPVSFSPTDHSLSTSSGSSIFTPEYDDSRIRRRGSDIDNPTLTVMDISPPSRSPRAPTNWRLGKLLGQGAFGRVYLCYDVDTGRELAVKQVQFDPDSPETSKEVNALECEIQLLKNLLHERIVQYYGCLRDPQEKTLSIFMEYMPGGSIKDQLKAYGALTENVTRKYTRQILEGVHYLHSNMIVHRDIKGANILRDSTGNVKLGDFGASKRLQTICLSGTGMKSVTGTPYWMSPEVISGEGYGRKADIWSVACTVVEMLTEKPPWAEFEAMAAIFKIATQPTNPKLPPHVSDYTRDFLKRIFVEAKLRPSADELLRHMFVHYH

[10] = target: T2, Eukaryotic elongation factor 2 kinase (Homo sapiens) (UniProt O00418); assay: Inhibition of human recombinant eEF2K at 15 nM in presence of ATP by radiometric assay relative to control
T2 sequence (whole entry): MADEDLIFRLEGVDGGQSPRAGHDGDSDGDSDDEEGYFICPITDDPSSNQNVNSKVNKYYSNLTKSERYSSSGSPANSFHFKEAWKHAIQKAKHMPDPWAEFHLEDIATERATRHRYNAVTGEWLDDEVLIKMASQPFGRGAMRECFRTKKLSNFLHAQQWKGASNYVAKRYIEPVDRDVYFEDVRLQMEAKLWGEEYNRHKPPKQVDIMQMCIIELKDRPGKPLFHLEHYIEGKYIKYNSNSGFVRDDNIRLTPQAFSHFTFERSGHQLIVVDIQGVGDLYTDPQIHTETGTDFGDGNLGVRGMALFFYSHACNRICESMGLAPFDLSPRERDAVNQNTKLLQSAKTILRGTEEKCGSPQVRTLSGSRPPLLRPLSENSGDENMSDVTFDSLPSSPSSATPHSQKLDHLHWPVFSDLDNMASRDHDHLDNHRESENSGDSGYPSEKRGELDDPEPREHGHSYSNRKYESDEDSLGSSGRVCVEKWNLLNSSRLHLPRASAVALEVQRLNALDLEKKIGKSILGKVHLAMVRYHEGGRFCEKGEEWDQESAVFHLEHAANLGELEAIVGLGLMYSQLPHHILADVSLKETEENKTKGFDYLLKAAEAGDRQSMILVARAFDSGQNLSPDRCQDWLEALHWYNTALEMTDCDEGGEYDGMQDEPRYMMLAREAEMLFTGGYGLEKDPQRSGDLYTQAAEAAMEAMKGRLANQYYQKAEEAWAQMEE

[11] = target: Mitogen-activated protein kinase kinase kinase 9 (Homo sapiens) (UniProt P80192); assay: Inhibition of human recombinant MLK1 at 15 nM in presence of ATP by radiometric assay relative to control
[12] = target: T2, Eukaryotic elongation factor 2 kinase (Homo sapiens); assay: Inhibition of human recombinant eEF2K at 15 nM related to control ULK1

Sequence of Ephrin type-A receptor 2 (Homo sapiens) (P29317 whole entry): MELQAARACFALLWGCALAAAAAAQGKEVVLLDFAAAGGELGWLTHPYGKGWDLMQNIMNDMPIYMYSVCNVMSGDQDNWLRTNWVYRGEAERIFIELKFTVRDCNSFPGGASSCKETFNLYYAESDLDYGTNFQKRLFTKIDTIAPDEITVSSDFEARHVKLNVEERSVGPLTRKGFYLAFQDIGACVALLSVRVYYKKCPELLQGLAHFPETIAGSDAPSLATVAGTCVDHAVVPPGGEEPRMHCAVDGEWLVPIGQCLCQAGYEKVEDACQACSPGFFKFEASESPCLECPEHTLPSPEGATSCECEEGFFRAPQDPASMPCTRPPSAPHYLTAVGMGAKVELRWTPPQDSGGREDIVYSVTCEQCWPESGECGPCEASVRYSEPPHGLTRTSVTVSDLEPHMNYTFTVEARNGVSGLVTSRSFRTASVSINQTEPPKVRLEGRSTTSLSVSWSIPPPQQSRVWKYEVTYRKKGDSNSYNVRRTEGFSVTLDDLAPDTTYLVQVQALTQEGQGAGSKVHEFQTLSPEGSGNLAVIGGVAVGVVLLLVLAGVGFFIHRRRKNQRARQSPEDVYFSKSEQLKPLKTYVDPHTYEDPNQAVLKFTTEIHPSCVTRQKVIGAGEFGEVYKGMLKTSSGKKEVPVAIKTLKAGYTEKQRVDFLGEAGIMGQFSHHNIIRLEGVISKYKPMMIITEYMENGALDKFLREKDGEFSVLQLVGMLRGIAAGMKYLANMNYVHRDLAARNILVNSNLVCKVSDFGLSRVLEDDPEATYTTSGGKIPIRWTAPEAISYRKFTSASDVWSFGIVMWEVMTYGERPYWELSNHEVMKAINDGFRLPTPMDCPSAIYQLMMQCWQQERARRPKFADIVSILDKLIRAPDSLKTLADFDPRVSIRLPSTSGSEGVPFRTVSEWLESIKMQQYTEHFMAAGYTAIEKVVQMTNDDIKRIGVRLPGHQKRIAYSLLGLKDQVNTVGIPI
Sequence of SRSF protein kinase 1 (Homo sapiens) (Q96SB4 whole entry): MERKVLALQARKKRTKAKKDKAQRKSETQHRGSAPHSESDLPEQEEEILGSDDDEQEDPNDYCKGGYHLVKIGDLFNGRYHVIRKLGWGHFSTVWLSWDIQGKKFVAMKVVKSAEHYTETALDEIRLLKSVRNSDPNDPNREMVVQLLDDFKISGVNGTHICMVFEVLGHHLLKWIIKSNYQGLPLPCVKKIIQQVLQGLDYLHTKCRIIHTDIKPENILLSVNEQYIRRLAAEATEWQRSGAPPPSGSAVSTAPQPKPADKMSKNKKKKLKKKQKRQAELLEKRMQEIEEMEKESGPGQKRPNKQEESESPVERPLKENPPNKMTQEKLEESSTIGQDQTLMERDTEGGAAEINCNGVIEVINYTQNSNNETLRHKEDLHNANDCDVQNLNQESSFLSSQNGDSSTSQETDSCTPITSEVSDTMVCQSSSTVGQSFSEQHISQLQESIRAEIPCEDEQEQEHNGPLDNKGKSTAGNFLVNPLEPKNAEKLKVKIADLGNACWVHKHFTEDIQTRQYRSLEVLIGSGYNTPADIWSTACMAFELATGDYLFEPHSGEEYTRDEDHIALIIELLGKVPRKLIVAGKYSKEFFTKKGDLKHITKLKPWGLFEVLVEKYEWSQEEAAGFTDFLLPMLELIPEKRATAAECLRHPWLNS
Sequence of Protein kinase C delta type (Homo sapiens) (Q05655 whole entry, looked up): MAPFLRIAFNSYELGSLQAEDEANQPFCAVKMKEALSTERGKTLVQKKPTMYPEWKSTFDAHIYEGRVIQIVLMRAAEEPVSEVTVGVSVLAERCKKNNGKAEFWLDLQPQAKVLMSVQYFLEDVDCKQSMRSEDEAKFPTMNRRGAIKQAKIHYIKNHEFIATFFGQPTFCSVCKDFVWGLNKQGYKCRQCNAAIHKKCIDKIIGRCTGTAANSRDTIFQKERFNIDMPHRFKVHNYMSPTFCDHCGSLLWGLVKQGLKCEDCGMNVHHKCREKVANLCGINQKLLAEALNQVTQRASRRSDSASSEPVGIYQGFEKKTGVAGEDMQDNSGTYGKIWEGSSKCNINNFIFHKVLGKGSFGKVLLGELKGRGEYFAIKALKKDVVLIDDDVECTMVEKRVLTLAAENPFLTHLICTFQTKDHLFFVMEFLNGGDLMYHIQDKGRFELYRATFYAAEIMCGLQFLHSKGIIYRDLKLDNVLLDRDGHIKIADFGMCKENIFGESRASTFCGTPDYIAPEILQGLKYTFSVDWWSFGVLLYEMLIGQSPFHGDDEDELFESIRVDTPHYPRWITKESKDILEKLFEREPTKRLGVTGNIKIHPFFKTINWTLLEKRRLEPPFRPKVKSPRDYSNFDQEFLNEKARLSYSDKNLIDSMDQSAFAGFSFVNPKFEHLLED
Sequence of Proto-oncogene tyrosine-protein kinase ROS (Homo sapiens) (P08922 whole entry): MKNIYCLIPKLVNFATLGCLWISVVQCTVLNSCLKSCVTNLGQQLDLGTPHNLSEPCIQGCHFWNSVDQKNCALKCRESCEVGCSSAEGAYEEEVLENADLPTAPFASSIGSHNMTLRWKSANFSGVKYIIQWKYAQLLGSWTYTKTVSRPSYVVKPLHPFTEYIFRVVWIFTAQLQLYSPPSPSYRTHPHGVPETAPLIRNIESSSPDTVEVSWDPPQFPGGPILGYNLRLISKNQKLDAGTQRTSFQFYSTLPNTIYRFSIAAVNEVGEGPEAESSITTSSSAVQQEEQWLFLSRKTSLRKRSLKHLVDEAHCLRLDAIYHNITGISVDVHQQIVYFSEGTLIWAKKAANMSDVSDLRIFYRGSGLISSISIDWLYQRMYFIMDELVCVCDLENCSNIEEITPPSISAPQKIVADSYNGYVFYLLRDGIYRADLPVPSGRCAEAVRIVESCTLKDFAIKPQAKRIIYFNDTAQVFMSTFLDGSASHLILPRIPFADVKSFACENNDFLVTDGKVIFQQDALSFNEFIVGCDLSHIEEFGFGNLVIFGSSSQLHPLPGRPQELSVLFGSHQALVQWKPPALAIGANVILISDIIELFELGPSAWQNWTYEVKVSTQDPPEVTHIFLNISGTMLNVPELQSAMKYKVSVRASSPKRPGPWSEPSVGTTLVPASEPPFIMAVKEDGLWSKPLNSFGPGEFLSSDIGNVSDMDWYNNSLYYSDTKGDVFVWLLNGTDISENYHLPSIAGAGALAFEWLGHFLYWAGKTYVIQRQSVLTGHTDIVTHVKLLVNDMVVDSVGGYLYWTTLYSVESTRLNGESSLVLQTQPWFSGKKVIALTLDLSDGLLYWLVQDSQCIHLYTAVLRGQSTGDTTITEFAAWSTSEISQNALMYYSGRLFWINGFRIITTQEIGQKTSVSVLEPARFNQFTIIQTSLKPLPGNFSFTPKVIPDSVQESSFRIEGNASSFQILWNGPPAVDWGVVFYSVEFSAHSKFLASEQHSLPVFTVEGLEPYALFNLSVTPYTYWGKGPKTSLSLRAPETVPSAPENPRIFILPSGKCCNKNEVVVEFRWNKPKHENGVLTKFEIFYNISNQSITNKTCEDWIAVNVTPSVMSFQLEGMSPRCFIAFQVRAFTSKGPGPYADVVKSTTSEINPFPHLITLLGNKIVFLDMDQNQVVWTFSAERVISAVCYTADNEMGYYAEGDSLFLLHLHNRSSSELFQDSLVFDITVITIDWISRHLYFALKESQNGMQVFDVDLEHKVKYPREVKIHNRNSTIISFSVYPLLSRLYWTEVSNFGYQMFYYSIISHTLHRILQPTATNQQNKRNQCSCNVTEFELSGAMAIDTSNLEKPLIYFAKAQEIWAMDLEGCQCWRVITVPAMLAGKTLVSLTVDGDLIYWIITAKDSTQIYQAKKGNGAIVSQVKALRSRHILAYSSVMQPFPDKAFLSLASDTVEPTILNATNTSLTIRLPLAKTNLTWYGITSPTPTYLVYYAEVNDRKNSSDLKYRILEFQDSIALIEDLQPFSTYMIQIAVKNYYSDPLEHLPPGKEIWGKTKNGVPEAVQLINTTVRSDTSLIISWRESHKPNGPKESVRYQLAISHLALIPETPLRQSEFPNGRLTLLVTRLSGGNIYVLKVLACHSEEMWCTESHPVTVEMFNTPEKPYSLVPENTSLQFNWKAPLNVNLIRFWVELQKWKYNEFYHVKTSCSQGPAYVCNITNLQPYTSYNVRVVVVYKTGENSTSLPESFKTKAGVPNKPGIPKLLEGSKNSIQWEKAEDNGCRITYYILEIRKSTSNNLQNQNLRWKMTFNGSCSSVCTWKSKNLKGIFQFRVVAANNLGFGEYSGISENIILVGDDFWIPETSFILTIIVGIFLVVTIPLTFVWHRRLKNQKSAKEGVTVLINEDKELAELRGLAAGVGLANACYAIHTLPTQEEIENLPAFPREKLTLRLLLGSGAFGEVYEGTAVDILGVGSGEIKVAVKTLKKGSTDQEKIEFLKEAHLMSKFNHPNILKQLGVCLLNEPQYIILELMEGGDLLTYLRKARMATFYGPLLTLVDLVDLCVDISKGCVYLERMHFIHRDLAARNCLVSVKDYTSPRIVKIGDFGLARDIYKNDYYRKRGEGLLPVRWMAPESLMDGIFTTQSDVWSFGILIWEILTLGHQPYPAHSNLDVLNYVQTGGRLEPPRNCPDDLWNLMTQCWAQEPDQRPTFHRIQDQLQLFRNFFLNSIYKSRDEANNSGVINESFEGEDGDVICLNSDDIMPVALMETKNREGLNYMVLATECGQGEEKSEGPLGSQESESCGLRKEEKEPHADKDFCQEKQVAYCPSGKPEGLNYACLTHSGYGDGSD

SMILES: O=C(N[C@@H](C1CC1)C(F)(F)F)c1cc(-c2cnn3cc(-c4ccc(F)cc4)cnc23)cs1
- inhibition [1]: 2%
- inhibition [2]: 0%
- inhibition [3]: 0%
- fold change (FC) [4]: 0.01
- fold change (FC) [5]: 0.04
- fold change (FC) [6]: 0

SMILES: CNC(=O)c1ccccc1Oc1nc(Nc2cc(OC)c(OC)c(OC)c2)ncc1Br
- inhibition [7]: 10%
- fold change (FC) [8]: 0.04
- fold change (FC) [9]: 0.04

SMILES: CC(C)[C@H](NC(=O)c1cc(-c2cnn3cc(-c4ccc(OCCN5CCCCC5)cc4)cnc23)cs1)C(F)(F)F
- inhibition [10]: 10%
- inhibition [11]: 0%
- fold change (FC) [12]: 0.11
